Data taken from US5602099A, “δ opioid receptor antagonists” (Aktiebolaget Astra, priority 1993, dated 1997).
Read-outs that look alike come from different tables or passages of the source. Peptide text beside a SMILES is read from it.

Key:
δ opioid receptors = target: T1, δ opioid receptors (Mus musculus, UniProt P32300); test: Mouse vas deferens (MVD) bioassay, antagonism of electrically evoked contraction inhibition by δ-selective agonists; type: tissue-based; details: MVD assay, means of 3-8 determinations
T1 construct: Bioassays Using Isolated Organ Preparations; from tissue; host or cells: mouse vas deferens (isolated organ)
Excerpt: a) Biosassys based on inhibition of electrically evoked contractions of the mouse vas deferens (MVD) and of the guinea pig ileum (GPI). In the GPI assay the opioid effect is primarily mediated by μ opioid receptors, whereas in the MVD assay the inhibition of the contractions is mostly due to interaction with δ opioid receptors.
The GPI and MVD bioassays were carded out as reported in P. W. Schiller et al., Biochem. Biophys. Res. Commun 85, 1332-1338 (1978) and J. Di Maio et al., J. Med. Chem. 25, 1432-1438 (1982). A log dose-response curve was determind with [Leu^5 ]enkephalin as standard for each ileum and vas preparation, and IC50 values of the compounds being tested were normalized according to A. A Waterfield et al., Eur. J. Pharmacol. 58, 11-18 (1979). […] These determinations were made with the MVD assay, using three different δ-selective agonists ([Leu^5 ] enkephalin, DPDPE and [D-Ala^2 ]deltorphin I].

δ opioid receptor = target: T2, δ opioid receptor (Rattus norvegicus, UniProt P33533); test: δ opioid receptor binding assay, displacement of δ-selective radioligand from rat brain membranes; details: for Ki^μ /Ki^δ: δ-selectivity ratio
T2 construct: Male Sprague-Dawley rats (300-350 g) from the Canadian Breeding Laboratories were decapitated and after removal of the cerebellum the brains were homogenized; from tissue; host or cells: rat brain (without cerebellum) membranes, male Sprague-Dawley
Excerpt: (§1) In the case of κ-ligands guinea pig brain homogenates were used, since the relative proportion of κ-binding sites is higher in guinea pig brain than in rat brain. The experimental procedure being used in our laboratory represents a modified version of the binding assay described by Pasternak et al. (Mol. Pharmacol. 11, 340-351, (1975)). Male Sprague-Dawley rats (300-350 g) from the Canadian Breeding Laboratories were decapitated and after removal of the cerebellum the brains were homogenized in 30 volumes of ice-cold standard buffer (50 mM Tris-HCl, pH 7.7). After centrifugation at 30,000×g for 30 min at 4° C. the membranes were reconstituted in the original volume of standard buffer and incubated for 30 min at 37° C. (to realease bound endogenous ligands). […] The incubation was terminated by filtration through Batman GF/B filters under vacuum at 4° C. Following two washings with 5 ml portions of ice-cold standard buffer the filters were transferred to scintillation vials and treated with 1 ml Protosol (New England Nuclear) for 30 min prior to the addition of 0.5 ml acetic acid and 10 ml Aquasol (New England Nuclear). After shaking for 30 min the vials were counted at an efficiency of 40-45%. All experiments were performed in duplicates and repeated at least three times. […] Values of half-maximal inhibition (IC50) of specific binding were obtained graphically from semilogarithmic plots. From the measured IC50-values, binding inhibition constants (Ki) were then calculated based on Cheng and Prusoff's equation (Biochem, Pharmacol. 22, 3099-3102 (1973)). Ratios of the Ki -values in the μ-, δ- and κ-representative binding assays are a measure of the receptor selectivety of the compound under investigation (e.g. Ki^μ /Ki^δ indicates the selectivity for δ-receptors versus μ-receptors).

μ opioid receptor = target: T3, μ opioid receptor (Rattus norvegicus, UniProt P33535); test: μ opioid receptor binding assay, displacement of [3H]DAMGO from rat brain membranes
T3 construct: Male Sprague-Dawley rats (300-350 g) from the Canadian Breeding Laboratories were decapitated and after removal of the cerebellum the brains were homogenized; from tissue; host or cells: rat brain (without cerebellum) membranes, male Sprague-Dawley
Excerpt: as §1

[1] = Ke (nM) against [D-Ala2]deltorphin I, δ agonist [D-Ala2]deltorphin I
[2] = Ke (nM) against [Leu5]Enkephalin, δ agonist [Leu5]enkephalin
[3] = Ke (nM) against DPDPE, δ agonist DPDPE

T1 sequence (P32300 whole entry): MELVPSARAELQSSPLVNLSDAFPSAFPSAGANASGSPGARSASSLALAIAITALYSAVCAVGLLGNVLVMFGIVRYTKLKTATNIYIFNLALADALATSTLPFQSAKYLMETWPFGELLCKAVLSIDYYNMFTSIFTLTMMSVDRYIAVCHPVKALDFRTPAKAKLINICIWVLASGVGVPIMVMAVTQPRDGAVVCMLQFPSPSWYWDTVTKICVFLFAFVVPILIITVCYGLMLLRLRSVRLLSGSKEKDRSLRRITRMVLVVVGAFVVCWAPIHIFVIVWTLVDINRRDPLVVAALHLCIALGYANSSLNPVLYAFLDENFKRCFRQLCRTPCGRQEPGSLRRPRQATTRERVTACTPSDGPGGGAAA
T2 sequence (P33533 whole entry): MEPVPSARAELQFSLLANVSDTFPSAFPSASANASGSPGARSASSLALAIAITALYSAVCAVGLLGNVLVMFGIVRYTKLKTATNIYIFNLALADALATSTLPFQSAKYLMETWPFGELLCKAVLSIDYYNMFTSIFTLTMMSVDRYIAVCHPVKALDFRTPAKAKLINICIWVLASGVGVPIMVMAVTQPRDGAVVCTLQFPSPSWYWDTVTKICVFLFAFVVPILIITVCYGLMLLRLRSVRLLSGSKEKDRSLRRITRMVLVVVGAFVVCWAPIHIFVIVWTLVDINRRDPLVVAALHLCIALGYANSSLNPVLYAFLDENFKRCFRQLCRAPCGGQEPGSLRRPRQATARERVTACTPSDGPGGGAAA
T3 sequence (P33535 whole entry): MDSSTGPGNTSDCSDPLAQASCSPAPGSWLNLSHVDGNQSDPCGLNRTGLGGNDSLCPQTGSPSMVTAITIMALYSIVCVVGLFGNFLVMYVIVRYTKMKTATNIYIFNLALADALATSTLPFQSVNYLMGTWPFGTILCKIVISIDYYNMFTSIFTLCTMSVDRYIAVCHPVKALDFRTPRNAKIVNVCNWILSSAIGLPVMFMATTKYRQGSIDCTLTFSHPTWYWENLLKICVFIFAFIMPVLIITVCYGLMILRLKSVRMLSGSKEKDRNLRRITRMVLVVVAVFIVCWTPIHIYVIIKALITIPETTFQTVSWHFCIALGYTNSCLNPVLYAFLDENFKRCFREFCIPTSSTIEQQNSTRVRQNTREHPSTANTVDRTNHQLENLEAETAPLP

SMILES | Kb (δ opioid receptors; [1]) [nM] | Kb (δ opioid receptors; [2]) [nM] | Kb (δ opioid receptors; δ agonist DPDPE, read-out: Ke (nM) against DPDPE) [nM] | Ki (δ opioid receptor; rat brain membranes, means of 3 determinations, read-out: Ki^.xi.) [nM] | Ki (μ opioid receptor; rat brain membranes, means of 3 determinations, read-out: Ki^μ) [nM] | Kb (δ opioid receptors; [3]) [nM] | Ki (δ opioid receptor) [nM] | Ki^μ /Ki^δ (δ opioid receptor) | Ki (μ opioid receptor) [nM]
NC(=O)[C@H](Cc1ccccc1)NC(=O)[C@H](Cc1ccccc1)NC(=O)[C@@H]1Cc2ccccc2CN1C(=O)[C@@H](N)Cc1ccc(O)cc1 [HTyrTicPhePheNH2, H-Tyr-Tic-Phe-Phe-NH2] (HELM PEPTIDE1{Y.[Tic].F.F.[am]}$$$$V2.0) | 14.4 | 15.7 | 18 | 3 | 78.8 |  |  |  | 
NC(=O)[C@H](CO)NC(=O)[C@@H]1CCCN1C(=O)[C@H](Cc1ccc(O)cc1)NC(=O)[C@H](Cc1ccccc1)NC(=O)[C@H](Cc1ccccc1)NC(=O)[C@@H]1Cc2ccccc2CN1C(=O)[C@@H](N)Cc1ccc(O)cc1 [HTyrTicPhePheTyrProSerNH2, H-Tyr-Tic-Phe-Phe-Tyr-Pro-Ser-NH2] (HELM PEPTIDE1{Y.[Tic].F.F.Y.P.S.[am]}$$$$V2.0) | 3.9 | 4.78 |  |  |  | 4.63 | 0.9 | 731 | 658 ± 136
CC(C)[C@H](NC(=O)[C@H](Cc1ccccc1)NC(=O)[C@H](Cc1ccccc1)NC(=O)[C@@H]1Cc2ccccc2CN1C(=O)[C@@H](N)Cc1ccc(O)cc1)C(=O)N[C@H](C(=O)NCC(N)=O)C(C)C [HTyrTicPhePheValValGlyNH2, H-Tyr-Tic-Phe-Phe-Val-Val-Gly-NH2] (HELM PEPTIDE1{Y.[Tic].F.F.V.V.G.[am]}$$$$V2.0) | 4.96 | 6.48 |  |  |  | 6.36 | 1.43 | 2300 | 3290
NC(=O)[C@H](Cc1c[nH]c2ccccc12)NC(=O)[C@H](Cc1ccccc1)NC(=O)[C@@H]1Cc2ccccc2CN1C(=O)[C@@H](N)Cc1ccc(O)cc1 [HTyrTicPheTrpNH2, H-Tyr-Tic-Phe-Trp-NH2] (HELM PEPTIDE1{Y.[Tic].F.W.[am]}$$$$V2.0) | 38.6 | 49.5 |  |  |  | 41.3 |  | 258 | 
N[C@@H](Cc1ccc(O)cc1)C(=O)N1Cc2ccccc2C[C@H]1C(=O)N[C@H](C(=O)N[C@@H](Cc1ccccc1)C(=O)O)c1ccccc1 [HTyrTicPhgPheOH, H-Tyr-Tic-Phg-Phe-OH] (HELM PEPTIDE1{Y.[Tic].[Phg].F}$$$$V2.0) | 8.31 | 13.8 |  |  |  | 21.5 | 3.01 | 9630 | 29000
NC(=O)[C@H](Cc1ccccc1)NC(=O)[C@H](Cc1c[nH]c2ccccc12)NC(=O)[C@@H]1Cc2ccccc2CN1C(=O)[C@@H](N)Cc1ccc(O)cc1 [HTyrTicTrpPheNH2, H-Tyr-Tic-Trp-Phe-NH2] (HELM PEPTIDE1{Y.[Tic].W.F.[am]}$$$$V2.0) | 2.31 | 3.24 |  |  |  | 4.65 |  | 709 | 
N[C@@H](Cc1ccc(O)cc1)C(=O)N1Cc2ccccc2C[C@H]1C(=O)N[C@@H](Cc1c[nH]c2ccccc12)C(=O)N[C@@H](Cc1ccccc1)C(=O)O [HTyrTicTrpPheOH, H-Tyr-Tic-Trp-Phe-OH] (HELM PEPTIDE1{Y.[Tic].W.F}$$$$V2.0) | 1.65 | 2.37 |  |  |  | 2.56 |  | 5950 | 
CCCCCCN[C@@H](Cc1ccc(O)cc1)C(=O)N1Cc2ccccc2C[C@H]1C(=O)N[C@@H](Cc1ccccc1)C(=O)N[C@@H](Cc1ccccc1)C(=O)O [Tyr(N^α Hex)-TicPhePheOH, Tyr(N^α Hex)-Tic-Phe-Phe-OH] | 10.6 | 9.37 |  |  |  | 4.28 | 0.951 |  | 1080
CN[C@@H](Cc1ccc(O)cc1)C(=O)N1Cc2ccccc2C[C@H]1C(=O)N[C@@H](Cc1ccccc1)C(=O)N[C@@H](Cc1ccccc1)C(=O)O [Tyr(N^α Me)-TicPhePheOH, Tyr(N^α Me)-Tic-Phe-Phe-OH] (HELM PEPTIDE1{[meY].[Tic].F.F}$$$$V2.0) | 0.436 | 1.01 |  |  |  | 1.22 | 1.29 |  | 13400
